Source: US20230235301A1, “Compounds and Methods for Treating, Ameliorating, or Preventing Herpes Ocular Keratitis” (THE TRUSTEES OF THE UNIVERSITY OF PENNSYLVANIA, priority 2020, published 2023)
Positions of bridges follow the written chain, without caps; N, C: chain ends. Non-standard residues stand in square brackets, D forms with d. Residues, ends and D or L forms follow the SMILES beside them. No end group written: not given here. R8 = C=CCCCCCC[C@@](C)(N)C(=O)O; S5 = C=CCCC[C@](C)(N)C(=O)O

Assays:
Vero cells = assay: Cytotoxicity observed in the plaque reduction assays; assay type: cell-based, African green monkey
Description: (§1) Cells with ~90% confluence in 48-well plates were infected by absorbing virus (~100 PFU/well) for 1 h in 100 µL growth medium followed by adding 200 µL culture medium containing DMSO vehicle or serially diluted peptides or Acyclovir (Tocris Bioscience-Fisher Scientific) to each well of the plate. DMSO was maintained at 1% throughout the treatment. Cells were subsequently fixed and stained with 300 µL PBS containing 4% formaldehyde and 0.2% crystal violet overnight at room temperature. HSV-1 plaques were quantified at ~55 h post-infection of Vero cells. VV (WR strain) infection of BSC-1 cells was analyzed for plaque formation after 24 h. The plaque reduction assays were performed in duplicate and independently repeated twice. Cells were stained, and plaques counted under a dissecting microscope. Data were plotted on the GraphPad Prism.
Cellular cytotoxicity of the N-terminal substituted stapled peptides was also assessed. S-pep7A caused observable cell death at 50 µM in the plaque assays.

HSV-1 [1] = assay: microbe, parasite or virus in culture; assay type: cell-based; settings: 1 h
Description: as §1
Standard viral plaque reduction assays were conducted in Vero cells to determine if any of the five stapled peptides (S-pep1/3/4/7/8) that were able to block processive DNA synthesis, could also block HSV-1 infection. To minimize possible interference of HSV-1 cell attachment and entry by the peptides, cells were first infected by absorbing the virus for 1 h, followed by treatment with peptides at serial dilutions. […] The EC50 values of both S-pep3 and S-pep8 were approximately 100 µM (FIG. 15C and FIG. 15F). Additionally, S-pep4 was toxic at 12.5 µM, which precluded further optimization.

[2] = Cytotoxicity and cell viability assays (ATP content, LDH leakage) in Vero cells; assay type: cell-based; settings: African green monkey, 24 h treatment
Description: (§2) Cells were grown in 96-well plates to ~80% confluence and treated with peptides at different concentrations in 150 µL growth medium containing 1% DMSO. At 24 h post-treatment, 100 µL of the culture medium was used for the lactate dehydrogenase (LDH) cytotoxicity assay. In addition, the cells from the same treatment were assessed with an ATP-based cell viability assay. Briefly, after the growth medium was completely removed, the cells were lysed in 100 µL of 1% Triton X-100 in PBS per well at room temperature. After 10 min, 5 µL of lysate was used for ATP-based luciferase/luminescence assay according to the manufacturer’s protocol (Invitrogen, USA). The assays were performed in triplicate and independently repeated twice.

[3] = tested on: HSV-1 viral DNA (UL42 gene); assay: HSV-1 DNA replication in infected Vero cells (UL42 gene PCR); assay type: cell-based
Description: Confluent Vero cells in 48-well plates were infected by absorbing 10^5 PFU of HSV-1 (MOI ~1) for 1 h in 100 µL of DMEM medium containing 5% FBS. Unabsorbed virus was removed by washing the wells 4 times with PBS. Cells were then treated with S-pep7B (SEQ ID NO:32) peptide in triplicate at different dilutions in 300 µL growth medium containing 1% DMSO. At 4 h post-treatment, cells of each triplicate treatment were combined and lysed with 20 mM Tris buffer (pH 7.5) containing 20 mM EDTA, 0.5% SDS, and 0.5 mg/mL proteinase K. Total DNA was then prepared from the lysed cells with phenol/chloroform extraction and ethanol precipitation, and used for UL42 gene amplification by PCR using the primers described above for plasmid construction. After agarose gel electrophoresis, UL42 DNA levels were quantitated using an image capture and analysis system (G:Box Chemi HR, Syngene) and normalized to that of the cellular house-keeping gene GAPDH (glyceraldehyde-3-phosphate dehydrogenase), which was amplified using primers (forward: 5′-[…]-3′ (SEQ ID NO:55), and reverse: 5′-[…]-3′) (SEQ ID NO:56). The assays were independently repeated twice.
Experiments were subsequently performed to determine if the HSV-1 antiviral activity of S-pep7B was specifically due to the inhibition of viral DNA replication. […]

[4] = tested on: vaccinia virus (VV, WR strain); assay type: cell-based; settings: BSC-1 cells, plaques after 24 h
[5] = ATP-based cytotoxicity in human primary corneal epithelial cells; assay type: cell-based; settings: read-out: CC50 by ATP measurement
Description: as §2

HSV-1 [6] = assay: HSV-1 infection of human 3D organotypic corneal culture; assay type: cell-based; settings: 25 µM, 5 days treatment, 3D organotypic corneal tissue
Description: Cultures were assembled with human dermal fibroblasts isolated from newborn foreskins and primary human corneal epithelial cells isolated from unused sclerolimbal rings from corneal transplants. After three weeks, organotypic cultures with differentiated corneal epithelial cells overlaying a layer of fibroblasts are established, reproducing the organization of the anterior corneal surface (FIG. 23A).
The assembled 3D organotypic corneal culture was infected with HSV-1 by gently abrading the surface and topically applying 10^6 PFU/mL of HSV-1. After 1 h, unabsorbed virus was removed, and the culture was incubated in medium containing 25 µM S-pep7B in 0.5% DMSO. Treatment occurred over a period of 5 days, in which the medium containing S-pep7B was refreshed every other day. The corneal tissues were examined microscopically each day. At the end of the treatment period, the 3D tissue was cut in half, using the first half to measure the virus titer by plaque assay and the other half for histological examination.

[7] = target: T1, HSV-1 Processivity Factor (UL42) (HSV-1 (strain KOS), UniProt P10226 1-488); assay: cell-based or functional assay
T1 sequence: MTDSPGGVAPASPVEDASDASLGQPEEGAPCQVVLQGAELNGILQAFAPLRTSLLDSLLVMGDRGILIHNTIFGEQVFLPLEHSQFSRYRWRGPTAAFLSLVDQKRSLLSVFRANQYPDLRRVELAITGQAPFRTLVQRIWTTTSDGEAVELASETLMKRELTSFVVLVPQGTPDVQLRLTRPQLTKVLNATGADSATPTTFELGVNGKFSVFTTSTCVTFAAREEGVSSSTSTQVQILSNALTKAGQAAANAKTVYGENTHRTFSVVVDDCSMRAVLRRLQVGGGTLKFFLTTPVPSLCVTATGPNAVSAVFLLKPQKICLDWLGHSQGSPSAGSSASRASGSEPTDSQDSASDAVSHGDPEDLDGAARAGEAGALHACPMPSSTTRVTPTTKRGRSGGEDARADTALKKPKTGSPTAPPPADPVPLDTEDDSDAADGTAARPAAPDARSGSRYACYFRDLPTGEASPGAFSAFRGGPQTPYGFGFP

## CC(=O)N[C@@H](CCCNC(=N)N)C(=O)N[C@@H](CCCNC(=N)N)C(=O)N[C@@]1(C)CCCC=CCCCCCC[C@](C)(C(=O)N[C@@H](CC(C)C)C(=O)N[C@@H](C)C(=O)O)NC(=O)[C@H](CC(=O)O)NC(=O)[C@H](Cc2ccccc2)NC(=O)[C@H](C)NC(=O)[C@H](CCCNC(=N)N)NC(=O)[C@H](Cc2c[nH]cn2)NC(=O)[C@H](CC(C)C)NC1=O [S-pep4, Ac-RRXLHRAFDZLA] (Ac-RR[S5]LHRAFD[R8]LA-OH; staple 3-10; C-terminus assumed)
Vero cells
  concentration at which toxicity / cell death was observed in the plaque assays: 12.5 µM

## CC(=O)N[C@H](C(=O)N[C@H](C(=O)N[C@@H](CCCNC(=N)N)C(=O)N[C@@H](CCCNC(=N)N)C(=O)N[C@@]1(C)CCCC=CCCC[C@@](C)(C(=O)N[C@@H](Cc2ccccc2)C(=O)N[C@@H](CC(=O)O)C(=O)N[C@H](C(=O)N[C@@H](CC(C)C)C(=O)N[C@@H](C)C(=O)O)[C@@H](C)O)NC(=O)[C@H](CCCNC(=N)N)NC(=O)[C@H](Cc2c[nH]cn2)NC(=O)[C@H](CC(C)C)NC1=O)[C@@H](C)O)C(C)C [S-pep7A, Ac-VTRRXLHRXFDTLA] (Ac-VTRR[S5]LHR[S5]FDTLA-OH; staple 5-9; C-terminus assumed)
Vero cells
  concentration at which toxicity / cell death was observed in the plaque assays: 50 µM
HSV-1 [1]
  EC50: 9.6 µM

## CC(=O)N[C@H](C(=O)N[C@H](C(=O)N[C@H](C(=O)N[C@@H](CCCNC(=N)N)C(=O)N[C@@H](CCCNC(=N)N)C(=O)N[C@@]1(C)CCCC=CCCC[C@@](C)(C(=O)N[C@@H](Cc2ccccc2)C(=O)N[C@@H](CC(=O)O)C(=O)N[C@H](C(=O)N[C@@H](CC(C)C)C(=O)N[C@@H](C)C(=O)O)[C@@H](C)O)NC(=O)[C@H](CCCNC(=N)N)NC(=O)[C@H](Cc2c[nH]cn2)NC(=O)[C@H](CC(C)C)NC1=O)[C@@H](C)O)C(C)C)C(C)C [S-pep7B, Ac-VVTRRXLHRXFDTLA] (Ac-VVTRR[S5]LHR[S5]FDTLA-OH; staple 6-10; C-terminus assumed)
[2]; read-out: CC50, LDH leakage
  CC50 at 24 h: 126 µM
[2]; read-out: CC50, intracellular ATP content
  CC50 at 24 h: 114 µM
[3]; 50 µM, 4 h post-treatment
  viral DNA level relative to time point 0 h: completely suppressed
[3]; MOI ~1, 4 h post-treatment, increasing concentrations, normalized to GAPDH
  UL42 DNA levels in infected cells: greatly reduced
Vero cells
  concentration at which toxicity / cell death was observed in the plaque assays: no visible cytotoxicity
[4]
  inhibition of VV infection of cells: did not inhibit
[5]
  CC50 at 24 h: 31.2 µM
HSV-1 [1]
  EC50: 9.8 µM
HSV-1 [6]
  HSV-1 structural gB protein (immunostaining): complete absence
  nuclear morphology (DAPI staining): unremarkable nuclear morphology

## CC(=O)N[C@@H](CCCNC(=N)N)C(=O)N[C@H](C(=O)N[C@@H](CCCNC(=N)N)C(=O)N[C@@H](CCCNC(=N)N)C(=O)N[C@@]1(C)CCCC=CCCC[C@@](C)(C(=O)N[C@@H](Cc2ccccc2)C(=O)N[C@@H](CC(=O)O)C(=O)N[C@H](C(=O)N[C@@H](CC(C)C)C(=O)N[C@@H](C)C(=O)O)[C@@H](C)O)NC(=O)[C@H](CCCNC(=N)N)NC(=O)[C@H](Cc2c[nH]cn2)NC(=O)[C@H](CC(C)C)NC1=O)[C@@H](C)O [S-pep7C, Ac-RTRRXLHRXFDTLA] (Ac-RTRR[S5]LHR[S5]FDTLA-OH; staple 5-9; C-terminus assumed)
Vero cells
  concentration at which toxicity / cell death was observed in the plaque assays: 5 µM

## CC(=O)N[C@@H](CCCNC(=N)N)C(=O)N[C@@H](CCCNC(=N)N)C(=O)N[C@H](C(=O)N[C@@H](CCCNC(=N)N)C(=O)N[C@@H](CCCNC(=N)N)C(=O)N[C@@]1(C)CCCC=CCCC[C@@](C)(C(=O)N[C@@H](Cc2ccccc2)C(=O)N[C@@H](CC(=O)O)C(=O)N[C@H](C(=O)N[C@@H](CC(C)C)C(=O)N[C@@H](C)C(=O)O)[C@@H](C)O)NC(=O)[C@H](CCCNC(=N)N)NC(=O)[C@H](Cc2c[nH]cn2)NC(=O)[C@H](CC(C)C)NC1=O)[C@@H](C)O [S-pep7D, Ac-RRTRRXLHRXFDTLA] (Ac-RRTRR[S5]LHR[S5]FDTLA-OH; staple 6-10; C-terminus assumed)
Vero cells
  concentration at which toxicity / cell death was observed in the plaque assays: 5 µM

B1: Native peptide (N-pep) (peptide)
peptide: Ac-ETRRMLHRAFDTLA
[7]
  IC50 of in vitro processive DNA synthesis directed by recombinant UL30 and UL42: > 200 µM
